For data set [1], the system named is expression of pOCAT (ANG N-1498/+18) in Hepa 1-6 cells. Conditions: cited from earlier work.
The subject of data set [2] is expression of pOGH (ANG N-1498/+18) in Hep G-TW7 cells. The experiment in a line: Stimulation of expression of pOGH (ANG N-1498/+18) in stable Hep G-TW7 cells by angiotensins, IR-hGH by RIA. In kind it is cell-based, human. Conditions: 24 hours; for concentration giving maximal stimulation of expression of pOGH (ANG N-1498/+18): 10^-11 to 10^-5 mol/L tested. The method, then:
The method for the selection of stable hepatoma transformants with high expression of pOGH (ANG N-1498/+18) was similar to that described previously for opossum kidney cells (Wang TT et al., Kidney Int., 1994, 46:703-710). Briefly, plasmids pOGH (ANG N-1498/+18) and pRSV-Neo fusion genes were co-transfected (20 μg each) into Hep G-2 cells (1×10^6 cells) utilizing calcium phosphate-mediated endocytosis (Ming M. et al., Am. J. Hypertens., 1993, 6:141-148). After transfection, the cells were cultured overnight in 5.0 ml of DMEM containing 10% FBS. Then the medium was replaced with fresh medium containing 10% FBS and 500 μg/ml of aminoglycoside G 418 (Geneticin, Gibco Inc.). The stable transformants which were able to grow in the presence of G 418 and which secreted high levels of IR-hGH into the medium were further subcloned using the method of limiting dilution. Those cells that had passed through at least three repetitions of limiting dilution and continued to secrete high levels of IR-hGH after three months in the presence of G 418 were considered to be stable clones. One clone of human hepatoma (Hep G-TW7) with pOGH (ANG N-1498/+18) integrated into the genomes of Hep G-2 cells was obtained. The clone (Hep G-TW7) was used in accordance with the present invention.
Hep G-TW7 cells were plated at a density of 1-2×10^5 cells/well in 6-well plates and incubated overnight in DMEM containing 1% depleted FBS (dFBS). Then cell growth was arrested by incubation in serum-free medium for 24 hours. Subsequently, various concentrations of AII (10^-11 to 10^-5 mol/L) were added to the culture medium containing 1% dFBS. At the end of the incubation period, media were collected and kept at -20° C. until assay for IR-hGH.
Cells were incubated for up to 24 hours in the presence of various concentrations of AII. Media were harvested after 24 hours of incubation and assayed for IR-hGH. Each point represents the mean ±S.D. of at least three dishes (*p<0.05, **p<0.01 and **p<0.005).Similar results were obtained from two other experiments. It appears that maximal stimulation of expression of the pOGH (ANG N-1498/+18) was found with 10^-9 mol/L AII (p<0.01). At other concentrations of AII, it appears that the stimulatory effect of AII is minimal or inhibited.
(§1) The radioimmunoassay kit for hGH (RIA-hGH) was a gift from NIADDK, NIH, USA. The double antibody RIA procedure was similar to that previously used for the radioimmunoassay of ovine placental lactogen (Chan JSD et al., Endocrinology, 1978, 102:1606-1613). NIAMDD-hGH-1 (AFP-4793 B) was used for both iodination and as a hormone standard.
Hep G-TW7 cells were plated at a density of 1-2×10^5 cells/well in 6-well plates and incubated overnight in DMEM containing 1% depleted fetal bovine serum (dFBS). […]

The subject of data set [3] is expression of pOGH (ANG N-1498/+18) fusion gene in Hep G-2 cells. The experiment in a line: Transient gene transfection assay of pOGH (ANG N-1498/+18) in Hep G-2 cells, IR-hGH by RIA. The following applies: AII 10^-9 mol/L; for inhibition of the stimulatory effect of AII on expression of pOGH (ANG N-1498/+18): antagonist 10^-5 mol/L. In kind it is cell-based, human. As to the method: Plasmids or fusion genes were transfected into Hep G-2 cells utilizing calcium phosphate endocytosis as described previously (Ming M. et al., Am. J. Hypertens., 1993, 6:141-148). It was previously shown that optimal dose of DNA for gene transfection in mouse hepatoma (Hepa 1-6) cells is 20 μg of supercoiled DNA per 0.5-1×10^6 cells (Ming M. et al., Am. J. Hypertens., 1993, 6:141-148). Similar results were obtained in Hep G-2 cells. Thus, in present studies, a total of 20 μg DNA was routinely used in the cell transfection.
To study the effect of AII in the presence or absence of various AII antagonists on the expression of fusion gene in transient gene transfection assays, cells were incubated in DMEM without FBS, 10^-9 mol/L AII with or without 10^-5 mol/L AII antagonist were added on day 1 after DNA transfection. The media or cells were harvested on day 2 for assay of IR-hGH or CAT enzymatic activity, respectively.
In order to normalize the efficiency of transfection of pOGH (ANG N-1498/+18), 1 μg of pRSVCAT (a vector with the Rous Sarcoma Virus enhancer/promoter sequence fused to the 5'-end of the CAT coding sequence) was cotransfected with the pOGH (ANG N-1498/+18) (20 μg DNA). The results of pOGH (ANG N-1498/+18) were normalized to the efficiency of transfection of pRSVCAT. The levels of transfection efficiency for pOGH (ANG N-1498/+18) in human hepatoma cells was 25+12% as compared to pRSVCAT.
Results are expressed as the percentage of the control (without addition of AII antagonist, 100%), mean ±S.D. AII (10^-9 mol/L) stimulated the expression of the ANG-GH fusion gene by 1.4-fold (p<0.01) as compared to the control (absence of AII) in Hep G-2 cells. In the presence of Lorsatan™ (10^-5 mol/L) or Saralasin™ (10^-5 mol/L), the stimulatory effect of AII was inhibited.
as §1

Data set [4] deals with expression of pOGH (ANG N-1498/+18) in Hep G-TW7 cells stimulated by AII. The experiment in a line: Inhibition of AII-stimulated expression of pOGH (ANG N-1498/+18) in Hep G-TW7 cells, IR-hGH by RIA. In kind it is cell-based, human. Conditions: AII 10^-9 mol/L, 24 hours; for effect on the stimulatory effect of AII on expression of pOGH (ANG N-1498/+18): various concentrations of test substance. As to the method: Hep G-TW7 cells were plated at a density of 1-2×10^5 cells/well in a. 6-well plate and incubated overnight in DMEM containing 1% depleted FBS (dFBS). Then cell growth was arrested by incubation in serum-free medium for 24 hours. Subsequently, various concentrations (10^-9 to 10^-5 mol/L) of Lorsatan™, Saralasin™ and CGP 42112A™ were added to the culture medium containing 1% dFBS in the presence of 10^-9 mol/L AII and incubated for 24 hours. At the end of the incubation period, media were collected and kept at -20° C. until assay.
Cells were incubated for up to 24 hours in the presence of AII (10-9mol/L) and various concentrations of Lorsatan™ (10^-9 to 10^-5 mol/L) or Saralasin™ (10^-9 to 10^-5 mol/L) or CGP 42112A™ (10^-9 to 10^-5 mol/L). Media harvested and assayed for the level of IR-hGH.
Hep G-TW7 cells were plated at a density of 1-2×10^5 cells/well in a 6-well plate and incubated overnight in DMEM containing 1% dFBS. Then cells growth was arrested by incubation in serum-free medium for 24 hours. […] At the end of the incubation period, media were collected and kept at -20° C. until assay.
Media were harvested and assayed for the level of IR-hGH.
The radioimmunoassay kit for hGH (RIA-hGH) was a gift from NIADDK, NIH, USA. […] NIAMDD-hGH-1 (AFP-4793 B) was used for both iodination and as a hormone standard.

In data set [5] the test system is expression of pOCAT (ANG N-1498/+18) in hepatoma cells. The experiment in a line: Transient gene transfection of pOCAT (ANG N-1498/+18) in the presence of hGH, CAT assay. The data set is classed as cell-based, human. Conditions: hGH as high as 4.5 mmol/L. The source says: The method for the CAT assay has been described previously (Ming M. et al., Am. J. Hypertens., 1993, 6:141-148). The results of all CAT assays are given as a mean+S.D. in triplicates.
In accordance with the present invention, the plasmid pOGH (ANG N-1498/+18) was employed to study the effect of AII (FIGS. 2 to 6). Since receptors for hGH are presented in Hep G-2 cells, this raised the possibility that the hGH secreted into the medium may have a stimulatory effect on the expression of the ANG gene. Thus, in order to investigate this possibility, transient gene transfection experiments were performed by employing pOCAT (ANG N-1498/+18) (Ming M. et al., Am. J. Hypertens., 1993, 6:141-148), in the presence of hGH. […] The use of plasmid pOGH (ANG N-1498/+18) in accordance with the present invention is appropriate.

Turning to `Nc1ncnc2c1nc(Br)n2[C@@H]1O[C@@H]2COP(=O)(O)O[C@H]2[C@H]1O` [8-Br-cAMP, 8-Bromo-cAMP], the “effect on the stimulatory effect of dexamethasone on expression of ANG-CAT fusion genes” value in data set [1] (added with DEX) is on record as “enhanced the stimulatory effect”. Also, the “effect on expression of ANG-CAT fusion genes, substance alone” value in data set [1] is “no stimulatory effect”.
Take `CC[C@H](C)[C@H](NC(=O)[C@H](Cc1ccc(O)cc1)NC(=O)[C@@H](NC(=O)[C@@H](N)CCCNC(=N)N)C(C)C)C(=O)N[C@@H](Cc1c[nH]cn1)C(=O)N1CCC[C@H]1C(=O)N[C@@H](Cc1ccccc1)C(=O)O` [AIII, angiotensin III]: the “effective dose for stimulating the expression of pOGH (ANG N-1498/+18)” value in data set [2] is listed as > 10^-5 mol/L.
Consider `CCCCc1nc(Cl)c(CO)n1Cc1ccc(-c2ccccc2-c2nn[nH]n2)cc1` [Lorsatan], for which the “inhibition of the stimulatory effect of AII on expression of pOGH (ANG N-1498/+18)” value in data set [3] was “inhibited”. For the same molecule, the “effect on the stimulatory effect of AII on expression of pOGH (ANG N-1498/+18)” value (“effect on the stimulatory effect of AII” below) in data set [4] is listed as “inhibits the stimulatory effect of AII”. In data set [4] (Homo sapiens, read-out: effective dose for the inhibition of the AII-stimulated expression of pOGH (ANG N-1498/+18)), the minimal effective concentration was determined as 0.001 µM.
`CNCC(=O)N[C@@H](CCCN=C(N)N)C(=O)N[C@H](C(=O)N[C@@H](Cc1ccc(O)cc1)C(=O)N[C@H](C(=O)N[C@@H](Cc1cnc[nH]1)C(=O)N1CCC[C@H]1C(=O)N[C@@H](C)C(=O)O)C(C)C)C(C)C` [Saralasin]: the “inhibition of the stimulatory effect of AII on expression of pOGH (ANG N-1498/+18)” value in data set [3] is recorded as “inhibited”. In addition, in data set [4], the “effective dose for the inhibition of the AII-stimulated expression of pOGH (ANG N-1498/+18)” value is given as 10^-7 mol/L and the “effect on the stimulatory effect of AII” value was “inhibits the stimulatory effect of AII”.
As to `CN[C@@H]1C[C@H]2O[C@@](C)([C@@H]1OC)n1c3ccccc3c3c4c(c5c6ccccc6n2c5c31)C(=O)NC4` [Staurosporine], the “effect on the stimulatory effect of AII” value in data set [4] is recorded as “inhibits the stimulatory effect of AII”.
Regarding `C[C@@H]1C[C@H]2[C@@H]3CCC4=CC(=O)C=C[C@]4(C)[C@@]3(F)[C@@H](O)C[C@]2(C)[C@@]1(O)C(=O)CO` [dexamethasone], the “effect on expression of ANG-CAT fusion genes, substance alone” value in data set [1] is on record as “stimulates the expression”.
In the case of CGP 42112A, the “inhibition of the stimulatory effect of AII on expression of pOGH (ANG N-1498/+18)” value in data set [3] is listed as “no inhibitory effect”. Moreover, in data set [4], the “effective dose for the inhibition of the AII-stimulated expression of pOGH (ANG N-1498/+18)” value is > 10^-5 mol/L.
“angiotensin I (DRVYIHPFHL; Angiotensin-1; UniProt P01019 25-34, looked up) [AI]”: in data set [2], the “concentration giving maximal stimulation of expression of pOGH (ANG N-1498/+18)” value is 10^-7 mol/L.
As for “angiotensin II (DRVYIHPF; Angiotensin-2; UniProt P01019 25-32, looked up) [AII, peptide derived from angiotensinogen; stimulus of ANG gene expression]”, in data set [2], the “effective dose for stimulating the expression of pOGH (ANG N-1498/+18)” value is 10^-9 mol/L and the “concentration giving maximal stimulation of expression of pOGH (ANG N-1498/+18)” value is listed as 10^-9 mol/L. Also, the “stimulation of the expression of the ANG-GH fusion gene as compared to the control (absence of AII)” value in data set [3] (p<0.01, 0.001 µM) is given as 1.4 fold.
With hGH: human growth hormone, the “effect of hGH on expression of pOCAT (ANG N-1498/+18)” value in data set [5] is “No significant increase”.

Source of the values: patent publication US5652097A, “In vitro test to evaluate the inhibition potency of angiotensin II antagonists on angiotensinogen” (priority 1994, dated 1997).
